# From patent US8071383B2, “D-amino acid selection for soybean” (BASF Plant Science GmbH, priority 2006, dated 2011)
# Key:
# Assay type in all cases: cell-based, Glycine max
# [1] = test system: soybean explants; assay: SELDA selection and co-cultivation hormones, transformation efficiency; details: for Ave TE (%) / Confirmed events / TE range (%): vector RLM407, D-serine selection
# Protocol: In the first experiment, the experimental design included 10 repetitions over time (cutting experiments by 3 researchers) with 4 different co-cultivation media (treatments) per repetition and a minimum of 50 explants per treatment. Solid co-cultivation was prepared as stated earlier except the hormone, BAP, was replaced with one of the 4 following hormones: 7.5 μM BAP, 1.0 μM kinetin, 5.0 μM kinetin, or 7.5 μM kinetin. In the second experiment, the experimental design included 3 repetitions over time (cutting experiments by 1 researcher) with 5 different co-cultivation media (treatments) per repetition and a minimum of 50 explants per treatment. Solid co-cultivation was prepared by replacing BAP with one of the 5 following hormones: 7.5 μM BAP, 1.0 μM kinetin, 3 μM kinetin, 5 μM kinetin, or 7 μM kinetin.
# For both experiments, explants were prepared, inoculated with 50 mL of liquid co-cultivation medium containing SHA017/pSB1 carrying vector RLM407 for 30 minutes, and then randomly placed onto 1 of 4 or 5 solid co-cultivation media treatments, respectively. The protocol was followed as stated above with the D-serine selection regime: one week on shoot induction without selection, 3 weeks on shoot induction medium with 7.5 mM D-serine, then 5 mM D-serine throughout shoot elongation. Only one shoot per explant was removed to eliminate regeneration of clones. Putative transformants were confirmed for the presence of the dsda gene using quantitative PCR (TaqMan) and the transformation efficiency (TE) was calculated using the formula: [(number of dsda positive TaqMan confirmed independent events/total number of explants inoculated (n))*100].
# [2] = test system: soybean primary node explants inoculated with REW008; assay: D-alanine and D-alanine/D-serine killing curves using primary node explants; details: for D-alanine Kill Curve-regeneration (%) after 3 weeks on SIM: Experiment 1; for D-alanine + 7.5 mM D-serine Kill Curve-regeneration (%) after 3 weeks on SIM: Experiment 2
# Protocol: Kill curves for D-alanine selection with and without 7.5 mM D-serine were conducted for future experiments using dao1 as a selectable marker gene. The combination of using D-alanine and D-serine was also performed for the dao1 gene which can metabolize both D-alanine and D-serine. The binary plasmids RET019 (Pactin-dao1, Pubi-gus) and REW008 (Pnos-bar, Pubi-gus) were used as a positive and a negative control, respectively, and the T-DNA mobilized into soybean using Agrobacterium rhizogenes strain SHA017pSB1.
# Explants were inoculated with Agrobacterium, co-cultivated for 5 days, then moved onto shoot induction medium with or without selection for one week. After that time, explants were transferred onto new SIM with selection.
# In experiment 1, D-alanine was added to the SIM medium at the following concentrations: 0, 3, 7.5, 10, 20, 30, and 50 mM.
# In experiment 2, D-alanine was added in the same concentrations with 7.5 mM D-serine.
# The experimental design was as follows: T(treatment)1: 7 explants inoculated with REW008 with 1 week recovery; T2: 7 explants inoculated with REW008 with no recovery; The results of the experiment are shown in Table 2b. […] This drop was not seen on explants with recovery until 20 mM D-alanine. When in combination with D-serine, the explants do have reduced regeneration at lower concentrations, between 7.5 and 10 mM.
# [3] = test system: non-Agrobacterium infected soybean axillary meristem explants; assay: Killing curve for D-serine toxicity on non-inoculated seedling axillary meristem explants; details: 60 mM D-serine in SIM, 4 weeks
# Protocol: Killing curves for D-serine toxicity on non-Agrobacterium infected soybean tissues were performed on axillary meristem explants. Thirty explants were prepared as described above in example 1 and cultured on SIM containing either 0 mM, 3 μM, 30 μM, 300 μM, 3 mM, 30 mM, or 60 mM D-serine for a total of 4 weeks. After this time, the percent of explants with new shoot primordia, i.e. appearance of multiple shoots, were counted. In this experiment, a reduction in regeneration occurred between 3 and 30 mM and only 30% regeneration on explants exposed to 60 mM D-serine was seen (FIG. 1).
# [4] = test system: soybean axillary meristem explants, Dairyland cultivar 98043; assay: Kill curve with D-serine on inoculated axillary meristem explants (shoot induction and elongation)
# Protocol: In order to establish an effective level of selection during shoot induction and elongation a broad range of D-Serine concentrations was initially explored. Soybean axillary meristem explants were prepared from 7 day-old-seedlings from the Dairyland cultivar 98043, as described above in Examples 1 and 3.
# Agrobacterium rhizogenes strain SHA017 with the Super Vir pSB1 plasmid and containing the binary plasmids pRET017 or pREW008 were prepared as described in example 2. pRET017 contains nosP-c-dsdA/na-nosT and pPcUBI-gusINT-nosT (Example 9). pREW008 contains nosP-bar-nosT and pPcUBI-gusINT-nosT and was used as a control vector (Example 9).
# Explants were handled as described above in example 4. After one week on shoot induction medium (SIM) medium with no selection, explants were transferred to SIM medium containing various concentrations of D-serine ranging from 0 to 15 to 30 to 45 mM. All regenerating explants (shoot pads) were transferred to shoot elongation media (SEM) containing 3 mM D-serine after three and six weeks of incubation. Elongating shoots were transferred to rooting medium (RM) medium and screened by GUS expression and Taqman analysis.
# [5] = Table 6 (experiment 1), 7.5 uM BAP in co-cultivation medium
# [6] = Table 7 (experiment 2), 7.5 uM BAP in co-cultivation medium
# [7] = Table 6 (experiment 1), 1 uM Kinetin in co-cultivation medium
# [8] = Table 6 (experiment 1), 5 uM Kinetin in co-cultivation medium
# [9] = Table 6 (experiment 1), 7.5 uM Kinetin in co-cultivation medium
# [10] = Table 7 (experiment 2), 1 uM Kinetin in co-cultivation medium
# [11] = Table 7 (experiment 2), 3 uM Kinetin in co-cultivation medium
# [12] = Table 7 (experiment 2), 5 uM Kinetin in co-cultivation medium
# [13] = Table 7 (experiment 2), 7 uM Kinetin in co-cultivation medium
structure (smiles),measurement,setting,value
"c1ccc(CNc2ncnc3nc[nH]c23)cc1 [BAP, 6-benzylaminopurine]",Ave TE (%),[1]; [5],0.4%
same,Confirmed events,[1]; [5],3
same,TE range (%),[1]; [5],0-2.5%
same,Ave TE (%),[1]; [6],1.3%
same,Confirmed events,[1]; [6],3
same,TE range (%),[1]; [6],0-2.5%
C[C@@H](N)C(=O)O [D-alanine],D-alanine Kill Curve-regeneration (%) after 3 weeks on SIM,"[2]; 3 mM D-alanine, T1: REW008 with 1 week recovery",100%
same,D-alanine Kill Curve-regeneration (%) after 3 weeks on SIM,"[2]; 3 mM D-alanine, T2: REW008 with no recovery",71%
same,D-alanine Kill Curve-regeneration (%) after 3 weeks on SIM,"[2]; 7.5 mM D-alanine, T1: REW008 with 1 week recovery",100%
same,D-alanine Kill Curve-regeneration (%) after 3 weeks on SIM,"[2]; 7.5 mM D-alanine, T2: REW008 with no recovery",86%
same,D-alanine Kill Curve-regeneration (%) after 3 weeks on SIM,"[2]; 10 mM D-alanine, T1: REW008 with 1 week recovery",100%
same,D-alanine Kill Curve-regeneration (%) after 3 weeks on SIM,"[2]; 10 mM D-alanine, T2: REW008 with no recovery",71%
same,D-alanine Kill Curve-regeneration (%) after 3 weeks on SIM,"[2]; 20 mM D-alanine, T1: REW008 with 1 week recovery",100%
same,D-alanine Kill Curve-regeneration (%) after 3 weeks on SIM,"[2]; 20 mM D-alanine, T2: REW008 with no recovery",27%
same,D-alanine Kill Curve-regeneration (%) after 3 weeks on SIM,"[2]; 30 mM D-alanine, T1: REW008 with 1 week recovery",29%
same,D-alanine Kill Curve-regeneration (%) after 3 weeks on SIM,"[2]; 30 mM D-alanine, T2: REW008 with no recovery",0%
same,D-alanine Kill Curve-regeneration (%) after 3 weeks on SIM,"[2]; 50 mM D-alanine, T1: REW008 with 1 week recovery",0%
same,D-alanine Kill Curve-regeneration (%) after 3 weeks on SIM,"[2]; 50 mM D-alanine, T2: REW008 with no recovery",0%
same,D-alanine + 7.5 mM D-serine Kill Curve-regeneration (%) after 3 weeks on SIM,"[2]; 3 mM D-alanine + 7.5 mM D-serine, T1: REW008 with 1 week recovery",100%
same,D-alanine + 7.5 mM D-serine Kill Curve-regeneration (%) after 3 weeks on SIM,"[2]; 3 mM D-alanine + 7.5 mM D-serine, T2: REW008 with no recovery",100%
same,D-alanine + 7.5 mM D-serine Kill Curve-regeneration (%) after 3 weeks on SIM,"[2]; 7.5 mM D-alanine + 7.5 mM D-serine, T1: REW008 with 1 week recovery",100%
same,D-alanine + 7.5 mM D-serine Kill Curve-regeneration (%) after 3 weeks on SIM,"[2]; 7.5 mM D-alanine + 7.5 mM D-serine, T2: REW008 with no recovery",71%
same,D-alanine + 7.5 mM D-serine Kill Curve-regeneration (%) after 3 weeks on SIM,"[2]; 10 mM D-alanine + 7.5 mM D-serine, T1: REW008 with 1 week recovery",71%
same,D-alanine + 7.5 mM D-serine Kill Curve-regeneration (%) after 3 weeks on SIM,"[2]; 10 mM D-alanine + 7.5 mM D-serine, T2: REW008 with no recovery",57%
same,D-alanine + 7.5 mM D-serine Kill Curve-regeneration (%) after 3 weeks on SIM,"[2]; 20 mM D-alanine + 7.5 mM D-serine, T1: REW008 with 1 week recovery",57%
same,D-alanine + 7.5 mM D-serine Kill Curve-regeneration (%) after 3 weeks on SIM,"[2]; 20 mM D-alanine + 7.5 mM D-serine, T2: REW008 with no recovery",0%
same,D-alanine + 7.5 mM D-serine Kill Curve-regeneration (%) after 3 weeks on SIM,"[2]; 30 mM D-alanine + 7.5 mM D-serine, T1: REW008 with 1 week recovery",0%
same,D-alanine + 7.5 mM D-serine Kill Curve-regeneration (%) after 3 weeks on SIM,"[2]; 30 mM D-alanine + 7.5 mM D-serine, T2: REW008 with no recovery",14%
same,D-alanine + 7.5 mM D-serine Kill Curve-regeneration (%) after 3 weeks on SIM,"[2]; 50 mM D-alanine + 7.5 mM D-serine, T1: REW008 with 1 week recovery",0%
same,D-alanine + 7.5 mM D-serine Kill Curve-regeneration (%) after 3 weeks on SIM,"[2]; 50 mM D-alanine + 7.5 mM D-serine, T2: REW008 with no recovery",0%
same,D-alanine concentration at which the regeneration frequency drops below 70%,[2]; explants exposed immediately after co-cultivation,30 mM
same,D-alanine concentration at which the regeneration frequency drops below 70%,[2]; explants with recovery,20 mM
c1coc(CNc2ncnc3[nH]cnc23)c1 [Kinetin],Ave TE (%),[1]; [7],1.4%
same,Confirmed events,[1]; [7],10
same,TE range (%),[1]; [7],0-6.4%
same,Ave TE (%),[1]; [8],2.3%
same,Confirmed events,[1]; [8],9
same,TE range (%),[1]; [8],0-4.2%
same,Ave TE (%),[1]; [9],2.7%
same,Confirmed events,[1]; [9],19
same,TE range (%),[1]; [9],0-9.8%
same,Ave TE (%),[1]; [10],3.7%
same,Confirmed events,[1]; [10],8
same,TE range (%),[1]; [10],1.3-8.1%
same,Ave TE (%),[1]; [11],2.5%
same,Confirmed events,[1]; [11],6
same,TE range (%),[1]; [11],2.3-2.7%
same,Ave TE (%),[1]; [12],1.8%
same,Confirmed events,[1]; [12],4
same,TE range (%),[1]; [12],1.2-3%
same,Ave TE (%),[1]; [13],2.2%
same,Confirmed events,[1]; [13],5
same,TE range (%),[1]; [13],0-5.2%
same,average transformation efficiency with kinetin in the co-cultivation media compared with BAP,[1]; both experiments,higher average transformation efficiencies
N[C@H](CO)C(=O)O [D-serine],D-alanine + 7.5 mM D-serine Kill Curve-regeneration (%) after 3 weeks on SIM,"[2]; 0 mM D-alanine + 7.5 mM D-serine, T1: REW008 with 1 week recovery",100%
same,D-alanine + 7.5 mM D-serine Kill Curve-regeneration (%) after 3 weeks on SIM,"[2]; 0 mM D-alanine + 7.5 mM D-serine, T2: REW008 with no recovery",100%
same,percent of explants with new shoot primordia (regeneration),[3],30%
same,shoot elongation,"[4]; 3 mM D-Ser in SEM, explants coming from 30 or 45 mM D-Ser during shoot induction",no shoot elongation
same,Percent of explants surviving after three weeks in shoot elongation (SEM) + 3 mM D-serine,"[4]; D-Ser in SIM 0 mM, RET017",82.8%
same,Percent of explants surviving after three weeks in shoot elongation (SEM) + 3 mM D-serine,"[4]; D-Ser in SIM 0 mM, REW008",94.7%
same,Percent of explants surviving after three weeks in shoot elongation (SEM) + 3 mM D-serine,"[4]; D-Ser in SIM 15 mM, RET017",74.1%
same,Percent of explants surviving after three weeks in shoot elongation (SEM) + 3 mM D-serine,"[4]; D-Ser in SIM 15 mM, REW008",72.1%
same,Percent of explants regenerating after 3 weeks in shoot induction (SIM) medium,"[4]; D-Ser in SIM 15 mM, explants inoculated with RET017 (nosP-dsdA)",78.1%
same,Percent of explants regenerating after 3 weeks in shoot induction (SIM) medium,"[4]; D-Ser in SIM 15 mM, explants inoculated with REW008 (control vector)",76.9%
same,Percent of explants surviving after three weeks in shoot elongation (SEM) + 3 mM D-serine,"[4]; D-Ser in SIM 30 mM, RET017",33.6%
same,Percent of explants surviving after three weeks in shoot elongation (SEM) + 3 mM D-serine,"[4]; D-Ser in SIM 30 mM, REW008",34.5%
same,Percent of explants regenerating after 3 weeks in shoot induction (SIM) medium,"[4]; D-Ser in SIM 30 mM, explants inoculated with RET017 (nosP-dsdA)",61.2%
same,Percent of explants regenerating after 3 weeks in shoot induction (SIM) medium,"[4]; D-Ser in SIM 30 mM, explants inoculated with REW008 (control vector)",55.3%
same,Percent of explants surviving after three weeks in shoot elongation (SEM) + 3 mM D-serine,"[4]; D-Ser in SIM 45 mM, RET017",4.9%
same,Percent of explants surviving after three weeks in shoot elongation (SEM) + 3 mM D-serine,"[4]; D-Ser in SIM 45 mM, REW008",2.6%
same,Percent of explants regenerating after 3 weeks in shoot induction (SIM) medium,"[4]; D-Ser in SIM 45 mM, explants inoculated with RET017 (nosP-dsdA)",25.5%
same,Percent of explants regenerating after 3 weeks in shoot induction (SIM) medium,"[4]; D-Ser in SIM 45 mM, explants inoculated with REW008 (control vector)",21.9%
same,shoot elongation,[4]; explants exposed to 15 mM D-Ser during shoot induction,Few shoots elongated
